One experiment has as its target Cathepsin B (Bos taurus, UniProt P07688). Description: Cathepsin B inhibition, Z-Arg-Arg-AFC (Table PKC1). Type of experiment: biochemical. Conditions: pH 6.0 phosphate buffer, substrate Z-Arg-Arg-AFC; read-out: Ki CB (Cathepsin B). A digest of the protocol: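 Enzyme added last to inhibitor (in DMSO) and Z-Arg-Arg-AFC in pH 6.0 phosphate buffer with 1.33 mM EDTA and 2.7 mM cysteine. AFC release followed fluorimetrically (ex 400 nm, em 505 nm) at various substrate and inhibitor concentrations; Ki from Dixon plot.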

For experiment [1], the target named is T1, Calpain I from human erythrocytes (Homo sapiens, UniProt P07384).
T1 construct: Calpain I from human erythrocytes and calpain II from rabbit were assayed using Suc-Leu-Tyr-AMC; from tissue; host or cells: human erythrocytes
T1 sequence (P07384 1-714): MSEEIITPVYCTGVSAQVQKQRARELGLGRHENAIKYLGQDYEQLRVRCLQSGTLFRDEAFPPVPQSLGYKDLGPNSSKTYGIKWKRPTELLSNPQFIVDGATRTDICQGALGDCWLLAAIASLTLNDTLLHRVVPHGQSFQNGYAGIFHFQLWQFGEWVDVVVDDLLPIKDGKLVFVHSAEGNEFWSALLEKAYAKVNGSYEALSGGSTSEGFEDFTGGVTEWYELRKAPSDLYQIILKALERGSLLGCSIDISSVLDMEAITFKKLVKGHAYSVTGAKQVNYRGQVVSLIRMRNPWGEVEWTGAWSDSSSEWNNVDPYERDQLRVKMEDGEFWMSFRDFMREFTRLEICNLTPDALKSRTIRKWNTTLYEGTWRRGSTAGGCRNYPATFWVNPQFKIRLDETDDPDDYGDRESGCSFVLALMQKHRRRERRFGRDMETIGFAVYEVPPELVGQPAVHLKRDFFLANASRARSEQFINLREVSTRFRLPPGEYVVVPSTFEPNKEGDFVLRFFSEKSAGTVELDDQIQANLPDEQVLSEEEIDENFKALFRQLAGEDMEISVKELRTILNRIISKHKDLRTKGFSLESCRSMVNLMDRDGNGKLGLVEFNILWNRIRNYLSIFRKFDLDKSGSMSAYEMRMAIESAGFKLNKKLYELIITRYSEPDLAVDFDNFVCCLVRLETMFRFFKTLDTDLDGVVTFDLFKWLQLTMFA
T1 sequence (P04632 1-268 partner): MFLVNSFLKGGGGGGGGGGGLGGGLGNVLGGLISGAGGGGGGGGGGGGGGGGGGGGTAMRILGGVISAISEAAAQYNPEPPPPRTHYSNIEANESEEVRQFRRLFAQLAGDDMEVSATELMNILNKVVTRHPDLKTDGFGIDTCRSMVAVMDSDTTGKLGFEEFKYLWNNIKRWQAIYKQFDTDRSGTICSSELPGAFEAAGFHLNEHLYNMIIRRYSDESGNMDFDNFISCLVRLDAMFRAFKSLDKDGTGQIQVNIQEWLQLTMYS
Description: Calpain I inhibition, Suc-Leu-Tyr-AMC (Table PKC1). The class given is biochemical. Conditions: 20 mM Hepes, 10 mM CaCl2, 10 mM β-mercaptoethanol, pH 7.2; read-out: Ki CI (Calpain I). The protocol:
Our discovery of Peptide Keto-Compounds effective as Calpain Inhibitors was made through assay of the Peptide Keto-Compounds as reversible inhibitors. Various concentrations of inhibitors in dimethylsulfoxide (DMSO) were added to the assay mixture, which contained buffer and substrate. The reaction was started by the addition of the enzyme and the hydrolysis rates were followed spectrophotometrically or fluorimetrically. 88 mM KH2 PO4, 12 mM Na2 HPO4, 1.33 mM EDTA, 2.7 mM cysteine, pH 6.0 was used as a buffer for cathepsin B; and 20 mM Hepes, 10 mM CaCl2, 10 mM β-mercaptoethanol, pH 7.2 buffer was utilized for calpain I and calpain II.
All peptide thioester hydrolysis rates were measured with assay mixtures containing 4,4'-dithiodipyridine [e324=19800 M-1 cm-1; Grasetti & Murray, Arch. Biochem. Biophys. 119, pp 41-49 (1967)]. Papain was assayed with Bz-Arg-AMC or Bz-Arg-NA [Kanaoka et al., Chem. Pharm. Bull. 25, 3126-3128 (1977)], and the AMC (7-amino-4-methylcoumarin) release was followed fluorimetrically (excitation at 380 nm, and emission at 460 nm). Cathepsin B was assayed with Z-Arg-Arg-AFC [Barrett and Kirschke, Methods Enzymol. 80, 535-561 (1981)], and the AFC (7-amino-4-trifluoromethylcoumarin) release was followed fluorimetrically (excitation at 400 nm, and emission at 505 nm). Calpain I from human erythrocytes and calpain II from rabbit were assayed using Suc-Leu-Tyr-AMC [Sasaki et al., J. Biol. Chem. 259, 12489-12494 (1984), hereby incorporated by reference], and the AMC (7-amino-4-methylcoumarin) release was followed fluorimetrically (excitation at 380 nm, and emission at 460 nm). Enzymatic hydrolysis rates were measured at various substrate and inhibitor concentrations, and Ki values were determined by Dixon plot.

Another experiment deals with N18-RE-105 cells. Description: Glutamate-induced cell death, MTT conversion (Example 5). The following applies: 5 mM glutamate, 19 hours; for blue formazan product relative to control without glutamate: inhibitor 3 μg/ml. The class given is cell-based. How it is done: Stock cultures of N18-RE-105 cells were maintained in Dulbecco's modified Eagle's medium (DMEM) containing 10% fetal bovine serum (FBS) and supplemented with hypoxanthine, aminopterin and thymidine (HAT). Subconfluent cultures were split and plated into 96-well plates. Twenty-four hours after plating the cells were exposed to fresh media containing glutamate and various concentrations of Calpain inhibitors. Control cells were not treated with glutamate. Conversion of MTT was measured 19 hours later as described. Nineteen hours after the onset of exposure, cell viability was quantitated by measuring the extent to which the cells convert 3(4,5-dimethylthiazol-2-yl)-2-5-diphenyltetrazolium bromide (MTT) to a blue formazan product, which occurs in the mitochondria of living but not dead cells (Pauwels et al., 1988). A higher absorbance is indicative of greater cell viability.

For experiment [2], the target named is T2, Cathepsin B from bovine spleen (Bos taurus, UniProt P07688).
T2 construct: Cathepsin B from bovine spleen was assayed using Z-Lys-4-nitrophenylphosphate as substrate; from tissue; host or cells: bovine spleen
In words: Cathepsin B Ki (Table 1B(i)). Type of experiment: biochemical. The following applies: substrate Z-Lys-4-nitrophenylphosphate. How it is done: The Peptide Keto-Compounds are reversible inhibitors of Calpains and other thiol proteases. […] Cathepsin B from bovine spleen was assayed using Z-Lys-4-nitrophenylphosphate as substrate.
The Ki value for the inhibition of Calpains and cathepsin B by several Peptide Keto-Compounds are shown in μM (micromolar). The values for leupeptin, which is commercially available from Calbiochem of La Jolla, Calif., are shown for comparison.

In a further experiment the target is Chym (Bos taurus, UniProt P00766). Description: Chym KI (Table 1B(ii)). The class given is biochemical. The source says:
(§1) We tested the ability of an additional group of Peptide Keto-Compounds to inhibit several proteases in order to evaluate their specificity for Calpain.

Another experiment deals with PP Elastase (Sus scrofa, UniProt P00772). Description: PP Elastase KI (Table 1B(ii)). Type of experiment: biochemical.
PP Elastase, sequence (P00772 27-266): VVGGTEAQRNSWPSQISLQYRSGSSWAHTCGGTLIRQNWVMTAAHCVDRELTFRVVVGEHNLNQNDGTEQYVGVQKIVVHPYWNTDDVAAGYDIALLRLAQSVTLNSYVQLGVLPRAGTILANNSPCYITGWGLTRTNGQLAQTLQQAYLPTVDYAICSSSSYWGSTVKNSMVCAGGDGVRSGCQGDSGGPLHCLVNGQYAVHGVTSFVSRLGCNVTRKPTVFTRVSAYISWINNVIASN
Excerpt: as §1

In the case of `CCC(NC(=O)[C@@H]1CCCN1C(=O)[C@H](C)NC(=O)[C@H](C)NC(=O)CCC(=O)OC)C(=O)C(=O)OC` (mixture of isomers) [MeO-Suc-Ala-Ala-Pro-Abu-COOMe, MeO-Suc-Ala-Ala-Pro-DL-Abu-CO2 Me], the figures for the Ki (at Cathepsin B; in experiment [1]) were 6 µM and 100 µM, respectively.
For the compound `CCOC(=O)C(=O)C(CC)NC(=O)[C@H](C)NC(=O)[C@H](C)NC(=O)OCc1ccccc1` (mixture of isomers) [Z-Ala-Ala-DL-Abu-COOEt, Z-Ala-Ala-DL-Abu-CO2 Et], the values for the Ki (at Cathepsin B; in experiment [1]) were 10 µM and 50 µM, respectively. In addition, the “blue formazan product relative to control without glutamate” value in the experiment with N18-RE-105 cells was at least 100%.
`CCOC(=O)C(=O)[C@H](CC)NC(=O)[C@H](CC(C)C)NC(=O)OCc1ccccc1` (racemic) [Z-Leu-Abu-COOEt, Z-Leu-DL-Abu-COOEt]: the Ki in experiment [1] was 0.04 µM; in experiment [2], 14 µM; at Chym, above 100 µM; on PP Elastase, above 100 µM.
Consider `CCCC(NC(=O)[C@H](CC(C)C)NC(=O)OCc1ccccc1)C(=O)C(=O)OCC` (mixture of isomers) [Z-Leu-Nva-COOEt, Z-Leu-DL-Nva-COOEt], for which the Ki at Cathepsin B was found to be 30 µM; in experiment [2], 30 µM; on Chym, 160 µM; on PP Elastase, 2.3 µM.
As for `N=C(N)SCCCOc1oc(=O)c2ccccc2c1Cl` [CiTprOIC, 4-chloro-3-(3-isothiureidopropoxy)isocoumarin], in the experiment on N18-RE-105 cells, the “blue formazan product relative to control without glutamate” value is at least 100%.
`CC(=O)N[C@@H](CC(C)C)C(=O)N[C@@H](CC(C)C)C(=O)N[C@H](C=O)CCCNC(=N)N` [Leupeptin, Ac-Leu-Leu-Arg-H, reference compound] gave an inhibitory constant (Ki) in experiment [2] of 6 µM. In addition, the “protection against glutamate toxicity” value with N18-RE-105 cells (leupeptin 5 μg/ml) is “protect N18-RE-105 cells against glutamate toxicity”.
For `N=C(N)SCCCOc1oc(=O)c2cc(N)ccc2c1Cl` [NH2 -CiTPrOIC (ACITIC), 7-amino-4-chloro-3-(3-isothiureidopropoxy)isocoumarin], the “blue formazan product relative to control without glutamate” value in the experiment on N18-RE-105 cells was at least 100%.
Consider `CCCCC(NC(=O)C(CC(C)C)NC(=O)OCc1ccccc1)C(=O)C(=O)OCC` (stereo not drawn) [Z-Leu-Nle-COOEt, Z-Leu-NLeu-CO2 Et], for which the figures for the Ki (in experiment [1]; in experiment [2]; on PP Elastase) were 0.12 µM, 18 µM and 2.2 µM, respectively.
Regarding `CCOC(=O)C(=O)C(Cc1ccccc1)NC(=O)C(CC(C)C)NC(=O)OCc1ccccc1` (stereo not drawn) [Z-Leu-Phe-COOEt], the Ki in experiment [1] is 0.23 µM; in experiment [2] it was above 50 µM; on Chym, 0.025 µM; on PP Elastase, above 100 µM.

For orientation: Ki means the dissociation constant of the complex between target and ligand, obtained from inhibition or displacement.

Values taken from US5444042A, “Method of treatment of neurodegeneration with calpain inhibitors” (Cortex Pharmaceuticals, priority 1994, dated 1995).
